Results reported in patent US20260284009A1, “COMPOUNDS FOR NOS-RELATED CANCERS AND METHODS OF USE” (YISSUM RESEARCH DEVELOPMENT COMPANY OF THE HEBREW …, priority 2023, published 2026).

Experiments:
SH-SY5Y cells [1] = test: Nitrite (Griess) assay in SH-SY5Y cells; assay type: cell-based, human; details: 7-NI
Protocol: (§1) Human neuroblastoma (“NB”) SH-SY5Y cells were obtained from the American Type Culture Collection (ATCC) and maintained in Dulbecco's modified Eagle's medium (DMEM) and Ham's F-12 (1:1) supplemented with 10% fetal bovine serum, 2 mM L-glutamine, and 100 U/ml penicillin-G/[…] streptomycin in the humidified atmosphere (37° C., 5% CO2). Cells were plated onto 25 cm^2 and 75 cm^2 at a density of […] respectively for Western blotting (WB) and 1×10^5 for immunofluorescence. The SH-SY5Y cells were treated with 100 μM 7-nitroindazole (7-NI) for 24 hr. This concentration was confirmed in the dose-response experiment (FIG. 1) using an MTT viability assay.
Released NO was measured with Griess assay Kit (Sigma-Aldrich, Cat. No. 23479) using the manufacturer's instructions.
(§2) SH-SY5Y cells were plated in 6 well plates, as well as on 22 mm^2 coverslips at a density of 6.0×10^4 cells/cm^2 and transfected with 20 nM nNOS siRNA (SEQ ID NO: 4) for 24 h, with the use of Lipofectamine RNAi MAX (56530, Invitrogen) according to the manufacturer's protocol. Then cells were washed with phosphate-buffered saline (PBS) and harvested for WB and fixed for immunofluorescence.

SH-SY5Y cells [2] = test: Western blots of 3-Ntyr, mTOR pathway components and Syp in SH-SY5Y cell lysate; assay type: cell-based, human; details: western blot normalized for β-actin, 100 μM 7-NI or 20 nM siRNA
Protocol: In FIGS. 4A-4D, for quantitative analysis data, all individual data series are presented as biological replicates (n=4) for all groups. Data were normalized for β-actin and are presented as mean±SEM. Statistical significance was determined using a One-way ANOVA followed by Fisher's LSD multiple comparison post hoc test. *P<0.05 and **P<0.01.
FIG. 4A: Representative western blots of 3-Ntyr prepared from cell lysate of SH-SY5Y cells following administration of the control (“SH-SY5Y”—Series 1), 100 μM 7-NI (“SH-SY5Y +7-NI”—Series 2), or 20 nM siRNA (SEQ ID NO: 4) (“SH-SY5Y+si-nNOS”—Series 3).
FIG. 4B: Quantitative analysis of 3-Ntyr levels for the experiments of FIG. 4A.
FIG. 4C: Representative western blots of mTOR, p-mTOR, TSC-2, AKT, pAKT, RPS6, pRPS6, and Syp prepared from the cell lysate of SH-SY5Y cells following administration of the control (“SH-SY5Y”—Series 1), 100 μM 7-NI (“SH-SY5Y+7-NI”—Series 2), or 20 nM siRNA (SEQ ID NO: 4) (“SH-SY5Y+si-nNOS”—Series 3).
FIG. 4D: Quantitative analysis of mTOR, p-mTOR, TSC-2, AKT, pAKT, RPS6, pRPS6, and Syp levels for the experiments of FIG. 4C.

SH-SY5Y cells [3] = test: Confocal immunofluorescence of SH-SY5Y cells (3-Ntyr, Syp); assay type: cell-based, human; details: 7-NI
Protocol: as §1
Cells cultured on coverslips coated with Poly-D-Lysine were washed three times with PBS and fixed in 4% paraformaldehyde for 15-20 min at room temperature. The fixed cells were washed three times with PBS and incubated in the presence of permeabilization buffer (PBS containing 0.1% Triton X-100) for 5 min at room temperature. […]

SH-SY5Y cells [4] = test: NADPH-diaphorase staining of SH-SY5Y cells; assay type: cell-based, human; details: 7-NI treated vs untreated group
Protocol: as §1
NADPH diaphorase staining were done using NBT as a chromogen and […] as a reductant to detect cells with NOS activity. Cells were cultured and treated as described previously in the immunofluorescence section. Then cells were fixed with 4% PFA for 30 min at room temperature in dark. After fixation, the cells were washed 2 times with PBS and then incubated in 0.2% Triton X-100 (in phosphate buffer) for 10 min. The cells were then incubated in […] NBT-NADPH solution for 2 h at 37C. The cells were washed twice with PBS and permanently mounted with DPX. Images were analyzed with a Nikon confocal TL microscope. […]

SH-SY5Y cells [5] = test: Western blot of SH-SY5Y cells (3-Ntyr, mTOR pathway proteins, synaptophysin); assay type: cell-based, human; details: 100 μM 7-NI, 24 hr
Protocol: as §1
Cells were lysed in ice-cold RIPA buffer containing 50 mM Tris-HCl, 1% Nonidet P-40, 0.25% sodium deoxycholate, 150 mM NaCl, protease-, and phosphatase inhibitor cocktails, pH 7.4. After sonication, the lysates were centrifuged at 17,000 g for 30 min at 4° C., and the supernatant was collected. The protein concentrations were determined with the BCA protein assay. Proteins were resolved by SDS-PAGE, transferred to a PVDF membrane, and probed with the following antibodies: anti-pMTOR (rabbit, diluted 1:1000), anti-mTOR (rabbit, diluted 1:1000), anti-TSC2 (rabbit, diluted 1:1000), anti-nNOS (rabbit, diluted 1:1000), anti-pAKT (rabbit, diluted 1:1000), anti-AKT (rabbit, diluted 1: 1000), anti-pRPS6 (rabbit, diluted 1:1000), anti-RPS6 (mouse, diluted 1:1000), anti-synaptophysin (mouse, diluted 1:1000), anti-β-actin (rabbit, diluted 1:1000), anti-3-Nitrotyrosine (rabbit, diluted 1:5000) from Abcam. All primary antibodies, except anti-3-Nitrotyrosine, were purchased from Cell Signaling Technology. The blots were then visualized using an enhanced chemiluminescence (ECL) system.
as §2

iNOS = iNOS expression level in U87-MG cells; assay type: cell-based, human; details: compared to the control treatment, not statistically significant (FIG. 14)
[6] = tested on: U87-MG human glioblastoma cell line; test: 3-Ntyr levels in U87-MG cells after treatment; assay type: cell-based; details: compared to the control, not significant (FIGS. 12C-12D)

O=[N+]([O-])c1cccc2cn[nH]c12 [7-NI, 7-nitroindazole]
nitrite content (Griess assay) (SH-SY5Y cells [1]): dramatic reduction | expression levels of 3-nitrotyrosine (3-Ntyr) (SH-SY5Y cells [2]): significant decrease | expression levels of AKT (SH-SY5Y cells [2]): significant decrease | expression levels of RPS6 (SH-SY5Y cells [2]): significant decrease | expression levels of TSC-2 (SH-SY5Y cells [2]): significant decrease | expression levels of mTOR (SH-SY5Y cells [2]): significant decrease | expression levels of p-mTOR (SH-SY5Y cells [2]): significant decrease | expression levels of pAKT (SH-SY5Y cells [2]): significant decrease | expression levels of pRPS6 (SH-SY5Y cells [2]): significant decrease | expression levels of synaptophysin (Syp) (SH-SY5Y cells [2]): significant decrease | fluorescence intensity of 3-Ntyr (SH-SY5Y cells [3]): significantly decreased | fluorescence intensity of Syp (SH-SY5Y cells [3]): significantly decreased | NADPH diaphorase staining (SH-SY5Y cells [4]): decreased | 3-Ntyr levels (SH-SY5Y cells [5]): halved | levels of TSC-2 (SH-SY5Y cells [5]): significant increase | levels of synaptophysin (SH-SY5Y cells [5]): significantly decreased | phosphorylation of RPS6 (SH-SY5Y cells [5]): reduced | phosphorylation of mTOR (SH-SY5Y cells [5]): decrease | phosphorylation of protein kinase-B (AKT) (SH-SY5Y cells [5]): reduced

CC(=N)NCCCC[C@H](N)C(=O)O [L-NIL, N^6-(1-iminoethyl)-L-lysine]
expression level of iNOS (iNOS; higher dose): unchanged | expression level of iNOS (iNOS; lower dose): slightly elevated | 3-Ntyr levels ([6]; higher dose): reduced | 3-Ntyr levels ([6]; lower dose): slightly increased
